# Source: BigSolDB 2.1
Structure (SMILES),"solubility (mole fraction) (in 1,4-dioxane, 283.15 K)","solubility (mole fraction) (in 1,4-dioxane, 288.15 K)","solubility (mole fraction) (in 1,4-dioxane, 293.15 K)","solubility (mole fraction) (in 1,4-dioxane, 298.15 K)","solubility (mole fraction) (in 1,4-dioxane, 303.15 K)","solubility (mole fraction) (in 1,4-dioxane, 308.15 K)","solubility (mole fraction) (in 1,4-dioxane, 313.15 K)","solubility (mole fraction) (in 1,4-dioxane, 318.15 K)","solubility (mole fraction) (in 1,4-dioxane, 323.15 K)","solubility (mole fraction) (in acetone, 283.15 K)","solubility (mole fraction) (in acetone, 288.15 K)","solubility (mole fraction) (in acetone, 293.15 K)","solubility (mole fraction) (in acetone, 298.15 K)","solubility (mole fraction) (in acetone, 303.15 K)","solubility (mole fraction) (in acetone, 308.15 K)","solubility (mole fraction) (in acetone, 313.15 K)","solubility (mole fraction) (in acetone, 318.15 K)","solubility (mole fraction) (in acetone, 323.15 K)","solubility (mole fraction) (in ethyl acetate, 283.15 K)","solubility (mole fraction) (in ethyl acetate, 288.15 K)",further results
O=C1OC(=O)c2c(Cl)cccc21,0.185,0.226,0.268,0.296,0.328,0.367,0.396,0.42,0.439,0.167,0.182,0.202,0.218,0.234,0.261,0.291,0.32,0.357,0.107,0.112,"solubility (mole fraction) (in ethyl acetate, 293.15 K): 0.121; solubility (mole fraction) (in ethyl acetate, 298.15 K): 0.133; solubility (mole fraction) (in ethyl acetate, 303.15 K): 0.154; solubility (mole fraction) (in ethyl acetate, 308.15 K): 0.169; solubility (mole fraction) (in ethyl acetate, 313.15 K): 0.191; solubility (mole fraction) (in ethyl acetate, 318.15 K): 0.225; solubility (mole fraction) (in ethyl acetate, 323.15 K): 0.265"
O=C1OC(=O)c2cc(Cl)ccc21,0.0825,0.0992,0.124,0.142,0.166,0.205,0.25,0.298,0.359,0.201,0.222,0.246,0.287,0.316,0.369,0.427,0.473,0.522,0.178,0.184,"solubility (mole fraction) (in ethyl acetate, 293.15 K): 0.206; solubility (mole fraction) (in ethyl acetate, 298.15 K): 0.228; solubility (mole fraction) (in ethyl acetate, 303.15 K): 0.261; solubility (mole fraction) (in ethyl acetate, 308.15 K): 0.293; solubility (mole fraction) (in ethyl acetate, 313.15 K): 0.326; solubility (mole fraction) (in ethyl acetate, 318.15 K): 0.377; solubility (mole fraction) (in ethyl acetate, 323.15 K): 0.437"
O=C(O)c1cccc(Cl)c1C(=O)O,,,,,,,,,,,,,,,,,,,,,"solubility (mole fraction) (in water, 283.15 K): 0.00201; solubility (mole fraction) (in water, 288.15 K): 0.00221; solubility (mole fraction) (in water, 293.15 K): 0.00248; solubility (mole fraction) (in water, 298.15 K): 0.00281; solubility (mole fraction) (in water, 303.15 K): 0.00315; solubility (mole fraction) (in water, 308.15 K): 0.00346; solubility (mole fraction) (in water, 313.15 K): 0.00383; solubility (mole fraction) (in water, 318.15 K): 0.0043; solubility (mole fraction) (in water, 323.15 K): 0.00473; solubility (mole fraction) (in water, 328.15 K): 0.00517; solubility (mole fraction) (in water, 333.15 K): 0.0056"
O=C(O)c1ccc(Cl)cc1C(=O)O,,,,,,,,,,,,,,,,,,,,,"solubility (mole fraction) (in water, 283.15 K): 0.0802; solubility (mole fraction) (in water, 288.15 K): 0.0913; solubility (mole fraction) (in water, 293.15 K): 0.109; solubility (mole fraction) (in water, 298.15 K): 0.125; solubility (mole fraction) (in water, 303.15 K): 0.145; solubility (mole fraction) (in water, 308.15 K): 0.169; solubility (mole fraction) (in water, 313.15 K): 0.2; solubility (mole fraction) (in water, 318.15 K): 0.226; solubility (mole fraction) (in water, 323.15 K): 0.262; solubility (mole fraction) (in water, 328.15 K): 0.299; solubility (mole fraction) (in water, 333.15 K): 0.349"
